Data from US9655877B2, “Therapeutic methods for treating inflammation and immune system disorders” (priority 2009, dated 2017).

Columns and labels:
[1] = test system: TNF-α production in human blood macrophages; assay: LPS-induced TNF-α production in human blood macrophages (PBMac), ELISA; assay type: cell-based; conditions: 25 or 50 μg/ml for 24 hours, then 1 ng/ml LPS for 24 hours
Description: To measure the TNF-α level in cell culture supernatants, BV-2 cells were seeded at 1×10^5 cells/ml in the volume of 0.5 ml in 24-well culture plates. They were co-treated with or without 100 ng/ml LPS in the absence or presence of indicated concentrations of bioactive compounds of LCX for 18 h. In addition, PBMac cells were seeded at 1×10^6 cells/ml in the volume of 0.5 ml in 24-well plates. After incubation, the supernatants were collected and TNF-α levels were determined by ELISA according to the manufacturer's instructions (R&D Systems). […] To study the effect of Sen A and Z-Lig at various concentrations on TNF-α production, 1×10^6 cells/ml (FIG. 6) PBMac cells are seeded in 24-well plates (0.5 ml in each well). Cells are treated with 25 μg/ml or 50 μg/ml Sen A, Z-Lig, or DMSO for 24 hours prior to the addition of 1 ng/ml LPS, and further incubated for another 24 hours. The culture supernatants are collected and the level of secreted TNF-α is measured by ELISA according to the manufacturer's instructions (R&D Systems, Minneapolis, Minn.).

[2] = test system: MAP kinases (p38, JNK, ERK 1/2); assay: Phosphorylation of MAPKs in LPS-stimulated BV-2 cells, Western blot; assay type: cell-based, murine; conditions: 50 μg/ml pretreatment 1 h, 100 ng/ml LPS 30 min
Description: BV-2 cells (2×10^5 cells/ml) were pretreated with either 0.05% DMSO or 50 μg/ml senkyunolide A for 1 h, followed by treatment with 100 ng/ml LPS for another 30 min. (A) Cytoplasmic proteins were extracted and analyzed by Western Blot using antibodies specific for phospho-p38, phospho-JNK, phospho-ERK 1/2 and actin. (B) Nuclear proteins were extracted and analyzed by Western Blot against NF-kB p65 and lamin B antibodies. 10^5 cells/ml BV-2 cells were first pretreated with senkyunolide A for 1 h. After induction by 100 ng/ml LPS for 30 min, the culture medium was discarded. Cytoplasmic proteins and nuclear proteins were extracted separately by buffer A and buffer C as described in our previous report^28. The cell lysates were separated by 10% SDS-polyacrylamide gel electrophoresis and transferred to a nitrocellulose membrane (Schleicher & Schuell, Germany). The cell lysates were incubated with specific antibodies (phospho-MAP kinases, Actin, NF-kB p65 and Lamin B) overnight. After three washes, the membranes were incubated with the corresponding secondary antibodies. The bands were detected using the Enhanced Chemiluminescence System (GE Healthcare, Piscataway, N.J., USA) according to the manufacturer's instructions. […] Briefly, the effect of Sen A on mitogen-activated protein kinases (MAPKs) in the cell signaling cascade was investigated. […]

[3] = test system: NF-kB p65; assay: Nuclear translocation of NF-kB p65 in LPS-stimulated BV-2 cells, Western blot; assay type: cell-based, murine; conditions: 50 μg/ml pretreatment 1 h, 100 ng/ml LPS 30 min
Description: BV-2 cells (2×10^5 cells/ml) were pretreated with either 0.05% DMSO or 50 μg/ml senkyunolide A for 1 h, followed by treatment with 100 ng/ml LPS for another 30 min. (A) Cytoplasmic proteins were extracted and analyzed by Western Blot using antibodies specific for phospho-p38, phospho-JNK, phospho-ERK 1/2 and actin. (B) Nuclear proteins were extracted and analyzed by Western Blot against NF-kB p65 and lamin B antibodies. 10^5 cells/ml BV-2 cells were first pretreated with senkyunolide A for 1 h. After induction by 100 ng/ml LPS for 30 min, the culture medium was discarded. Cytoplasmic proteins and nuclear proteins were extracted separately by buffer A and buffer C as described in our previous report^28. The cell lysates were separated by 10% SDS-polyacrylamide gel electrophoresis and transferred to a nitrocellulose membrane (Schleicher & Schuell, Germany). The cell lysates were incubated with specific antibodies (phospho-MAP kinases, Actin, NF-kB p65 and Lamin B) overnight. After three washes, the membranes were incubated with the corresponding secondary antibodies. The bands were detected using the Enhanced Chemiluminescence System (GE Healthcare, Piscataway, N.J., USA) according to the manufacturer's instructions. The NF-kB pathway plays a key role in the transcriptional regulation of inflammatory mediators. […]

[4] = test system: Neuro-2a cells; assay: Conditioned culture medium transfer model (LPS-treated BV-2 supernatant on Neuro-2a), MTT assay; assay type: cell-based, murine; conditions: supernatant of BV-2 cells treated with 100 ng/ml LPS and 50 μg/ml compound 18 h, on Neuro-2a 48 h; LPS only more than 40%
Description: BV-2 cells (3×10^5 cells/ml) were first treated with 100 ng/ml LPS for 18 h, in the presence of either 0.05% DMSO or 50 μg/ml senkyunolide A or Z-ligustilide. After centrifugation, the supernatants from BV-2 cells were transferred to Neuro-2a cells ([…]) for 48 h. Viability of Neuro-2a cells was measured using MTT assays. Results are shown as mean SD from three independent experiments. *p<0.05 compared with DMSO+LPS.
BV-2 cells were seeded at 3×10^5 cells/ml in 12-well culture plates (1 ml in each well). They were co-treated with or without 100 ng/ml LPS, in the presence of 0.05% DMSO, 50 μg/ml senkyunolide A, or 50 μg/ml Z-ligustilide, for 18 h. The supernatants were then collected and centrifuged at 13,200 rpm for 3 min. The resulting supernatants were then transferred to Neuro-2a cells (1×10^5 cells/ml in 24-well culture plates), which were incubated for another 48 h. Cell viability of Neuro-2a cells was measured by MTT assay.
Briefly, to investigate the physiological significance of Sen A and Z-Lig, a conditioned culture medium transfer model, commonly used for studying neuronal cell death induced by microglial activation, was adopted. After BV-2 cells were challenged with LPS, the supernatants were collected and centrifuged. The conditioned culture media were then transferred to Neuro-2a cell cultures.

[5] = test system: Neuro-2a cells; assay: Neuro-2a cells treated with compound alone in the culture media; assay type: cell-based, murine; conditions: compound alone in the culture media (data not shown)
Description: Specifically, a significant reduction in cell death, to less than 15% and 25%, respectively, was observed.

Structure (SMILES): CCCC[C@H]1OC(=O)C2=C1CCC=C2 [senkyunolide A]
- effect on endotoxin-induced TNF-α production [1]: suppress endotoxin-induced TNF-α production in a dose-dependent manner
- effect on levels of phosphorylation of MAPKs (p38, JNK, ERK 1/2) [2]: did not exert any effect
- effect on translocation of NF-kB p65 into the nucleus [3]: did not exert an inhibitory effect
- cell death of Neuro-2a cells [4]: less than 15%
- cell death with compound alone [5]: did not show cell death
